Data from article PMC11206519, “Multi-Endpoint Toxicological Assessment of Chrysin Loaded Oil-in-Water Emulsion System in Different Biological Models” (Nanomaterials, 2024).
Where two headings read alike, the source gives them in different places.

Assays:
[1] = system: S. typhimurium TA100; assay: Ames test, anti-mutagenicity
Experimental: Furthermore, the anti-mutagenicity of the samples was performed by a similar procedure, as mentioned above. […] The percentage inhibition (decrease revertant colony number) was calculated as in the following equation:Anti-mutagenicity (%) = [1 − (b/a)] × 100 • a = revertant colony number induced via standard mutagen (positive control). • b = revertant colony number induced by standard mutagen in the presence of each sample treatment.
The percent of inhibition between 0–20%, 21–40%, 41–60%, and higher than 60% indicate negligible, weak, moderate, and strong anti-mutagenicity, respectively.

[2] = system: Sprague Dawley rats; details: ref 45 (Yao et al.), cited from earlier work
[3] = system: D. melanogaster trans-heterozygous mwh+/+flr3 larvae of the ST cross; assay: SMART wing spot test, mutagenicity, ST cross; type: in vivo, Drosophila melanogaster; details: for Statistical diagnosis, Small Single / Statistical diagnosis, Total Spots: vs DI
Experimental: (§2) The somatic mutation and recombination test, or the wing spot test, using D. melanogaster was employed as an in vivo system to assess the mutagenicity and anti-mutagenicity of chrysin-ES. Two different crosses were conducted: (i) a standard cross (ST) and (ii) a high bioactivation cross (HB) [18]. The standard cross larvae were obtained from virgin female of flr3/TM3, Ser crossed with males of mwh/mwh, while the HB cross larvae expressing cytochrome P450 enzymes involved in xenobiotic biotransformation were obtained from virgin females of ORR/ORR; flr^3/In (3LR) TM3, ri p^psep l (3)89Aa bx^34e e Bd^s crossed with males of mwh/mwh. The flies were cultured at a constant temperature of 25 ± 1 °C and 60–70% RH at photoperiod 12:12 (light/dark). To evaluate the mutagenicity of chrysin and chrysin-ES, a hundred larva F1 progenies derived from the above crossing were fed with instant Drosophila medium (Formula 4-24®), Carolina, Burlington, NC, USA) containing chrysin or chrysin-ES (20–120 µg/mL). DI was used as a negative control, while 20 mM urethane (URE) was used as a positive control. The larvae were reared on each medium until pupation at 25 °C. After that, forty wings of surviving flies in each group were collected for mutant analysis. The mutant spots on the wings, including small single spots, large single spots, and twin spots, were counted.

[4] = cited from earlier work
[5] = system: D. melanogaster trans-heterozygous mwh+/+flr3 larvae of the HB cross; assay: SMART wing spot test, mutagenicity, HB cross; type: in vivo, Drosophila melanogaster
Experimental: as §2

[6] = system: RAW 264.7; assay: MTT cytotoxicity assay; type: cell-based, murine; details: Mus musculus, RAW264.7, 48 h
Experimental: RAW 264.7 (murine macrophage-like cell), 3T3-L1 adipocyte (murine adipocyte), HEK293 (human embryonic kidney cell), and LX-2 (human hepatic stellate cell) were obtained from American Type Culture Collection (ATCC, Manassas, VA, USA). RAW 264.7 macrophages were cultured as a suspension culture in an ultra-low attachment culture dish, whereas the others were cultured as adherent cells in a cell culture flask. The cells were grown in Dulbecco’s Modified Eagle Medium (DMEM) with L-glutamine, supplemented with 10% fetal bovine serum (FBS) (RAW 264.7, HEK293, and LX-2) or 10% fetal calf serum (FCS) (3T3-L1) and 1% penicillin under 5% CO2, at 37 °C. […] Blank-ES was used as a vehicle control. The amount of blank-ES was equal to chrysin-ES amount that was used for the treatment. The cytotoxicity of chrysin, chrysin-ES, and blank-ES in each cell was determined using an MTT assay. […] Then, the solution was gently removed, and the formazan crystal was dissolved with dimethyl sulfoxide (DMSO). The soluble formazan was measured using a microplate reader (Bio-TEK Synergy Hybrid Reader H4) at 540 nm. The cell viability is directly related to the absorbance of formazan. The percentage of cell viability was calculated using the following equation. Cell viability (%) = (Absorbance (sample))/(Absorbance (control)) × 100

[7] = system: S. typhimurium TA 98; assay: Ames test, mutagenicity; type: cell-based, Salmonella Typhimurium
Experimental: (§1) The S. typhimurium strains TA 98 and TA 100 were used to detect frameshift and base-pair mutations, respectively. […] Then, they were poured onto minimal glucose agar containing a trace amount of histidine, following incubation at 37 °C for 48 h. Then, the revertant colonies were counted and compared with the negative control. If the number of revertant colonies in the tested sample treatment is at least twice that of the negative control (spontaneous revertant colonies), it is considered a mutagen.

[8] = system: S. typhimurium TA 100; assay: Ames test, mutagenicity; type: cell-based, Salmonella Typhimurium
Experimental: as §1

[9] = AF-2 0.1 µg/plate, −S9, 5.7 µM/plate
[10] = AF-2 0.1 µg/plate, −S9, 11.4 µM/plate
[11] = AF-2 0.1 µg/plate, −S9, 22.8 µM/plate
[12] = IQ 0.05 µg/plate, +S9, 0.35 µM/plate
[13] = IQ 0.05 µg/plate, +S9, 0.70 µM/plate
[14] = IQ 0.05 µg/plate, +S9, 1.40 µM/plate
[15] = IQ 0.05 µg/plate, +S9, 2.85 µM/plate
[16] = IQ 0.05 µg/plate, +S9, 5.70 µM/plate

Q: What does the source list for `O=c1cc(-c2ccccc2)oc2cc(O)cc(O)c12` [Chrysin, 5,7-dihydroxyflavone]?
A: Inhibitory Classification [1, 9]: Mild; Number of Revertant Colonies [1, 9]: 252 ± 14; Inhibitory Classification [1, 10]: Mild; Number of Revertant Colonies [1, 10]: 250 ± 6; Inhibitory Classification [1, 11]: Mild; Number of Revertant Colonies [1, 11]: 235 ± 20; Inhibitory Classification [1, 12]: Moderate; Number of Revertant Colonies [1, 12]: 328 ± 32; Inhibitory Classification [1, 13]: Strong; Number of Revertant Colonies [1, 13]: 243 ± 16; Inhibitory Classification [1, 14]: Strong; Number of Revertant Colonies [1, 14]: 161 ± 10; Inhibitory Classification [1, 15]: Strong; Number of Revertant Colonies [1, 15]: 106 ± 15; Inhibitory Classification [1, 16]: Strong; Number of Revertant Colonies [1, 16]: 47 ± 10; inhibition at […] ([1]; Salmonella enterica, TYPHIMURIUM, read-out: % mutagenic inhibition, AF-2 0.1 µg/plate, −S9, 5.7 µM/plate): 32%; inhibition at 11.4 µM ([1]; Salmonella enterica, TYPHIMURIUM, read-out: % mutagenic inhibition, AF-2 0.1 µg/plate, −S9, 11.4 µM/plate): 32%; inhibition at 22.8 µM ([1]; Salmonella enterica, TYPHIMURIUM, read-out: % mutagenic inhibition, AF-2 0.1 µg/plate, −S9, 22.8 µM/plate): 37%; inhibition at 0.35 µM ([1]; Salmonella enterica, TYPHIMURIUM, read-out: % mutagenic inhibition, IQ 0.05 µg/plate, +S9, 0.35 µM/plate): 56%; inhibition at 0.7 µM ([1]; Salmonella enterica, TYPHIMURIUM, read-out: % mutagenic inhibition, IQ 0.05 µg/plate, +S9, 0.70 µM/plate): 67%; inhibition at 1.4 µM ([1]; Salmonella enterica, TYPHIMURIUM, read-out: % mutagenic inhibition, IQ 0.05 µg/plate, +S9, 1.40 µM/plate): 78%; inhibition at 2.85 µM ([1]; Salmonella enterica, TYPHIMURIUM, read-out: % mutagenic inhibition, IQ 0.05 µg/plate, +S9, 2.85 µM/plate): 86%; inhibition at […] ([1]; Salmonella enterica, TYPHIMURIUM, read-out: % mutagenic inhibition, IQ 0.05 µg/plate, +S9, 5.70 µM/plate): 94%; mortality ([2]; single oral 5000 mg/kg BW): 40%; LD50 ([2]; single oral administration): ~5000 mg/kg BW; Mutant spots per individual (number of spots), Large Single ([3]; 20 µg/mL): 0 (0); Mutant spots per individual (number of spots), Small Single ([3]; 20 µg/mL): 0.38 (15); Mutant spots per individual (number of spots), Total Spots ([3]; 20 µg/mL): 0.38 (15); Mutant spots per individual (number of spots), Twin ([3]; 20 µg/mL): 0 (0); Statistical diagnosis, Small Single ([3]; 20 µg/mL): −; Statistical diagnosis, Total Spots ([3]; 20 µg/mL): −; Mutant spots per individual (number of spots), Large Single ([3]; 40 µg/mL): 0.03 (1); Mutant spots per individual (number of spots), Total Spots ([3]; 40 µg/mL): 0.38 (15); Mutant spots per individual (number of spots), Twin ([3]; 40 µg/mL): 0 (0); Statistical diagnosis, Small Single ([3]; 40 µg/mL): −; Statistical diagnosis, Total Spots ([3]; 40 µg/mL): −; Mutant spots per individual (number of spots), Large Single ([3]; 80 µg/mL): 0 (0); Mutant spots per individual (number of spots), Small Single ([3]; 80 µg/mL): 0.58 (23); Mutant spots per individual (number of spots), Total Spots ([3]; 80 µg/mL): 0.58 (23); Mutant spots per individual (number of spots), Twin ([3]; 80 µg/mL): 0 (0); Statistical diagnosis, Small Single ([3]; 80 µg/mL): −; Statistical diagnosis, Total Spots ([3]; 80 µg/mL): −; Mutant spots per individual (number of spots), Large Single ([3]; 120 µg/mL): 0.08 (3); Mutant spots per individual (number of spots), Small Single ([3]; 120 µg/mL): 0.83 (33); Mutant spots per individual (number of spots), Total Spots ([3]; 120 µg/mL): 0.90 (36); Mutant spots per individual (number of spots), Twin ([3]; 120 µg/mL): 0 (0); Statistical diagnosis, Small Single ([3]; 120 µg/mL): −; Statistical diagnosis, Total Spots ([3]; 120 µg/mL): −; mutagenicity in SMART ([3]; 20–120 μg/mL, ST and HB cross): non-mutagenic; chrysin uptake eliminated in the feces [4]: 98%; Mutant spots per individual (number of spots), Large Single ([5]; 20 µg/mL): 0.03 (1); Mutant spots per individual (number of spots), Total Spots ([5]; 20 µg/mL): 0.23 (9); Mutant spots per individual (number of spots), Twin ([5]; 20 µg/mL): 0.03 (1); Mutant spots per individual (number of spots), Large Single ([5]; 40 µg/mL): 0.03 (1); Mutant spots per individual (number of spots), Total Spots ([5]; 40 µg/mL): 0.15 (6); Mutant spots per individual (number of spots), Twin ([5]; 40 µg/mL): 0 (0); Mutant spots per individual (number of spots), Large Single ([5]; 80 µg/mL): 0.03 (1); Mutant spots per individual (number of spots), Total Spots ([5]; 80 µg/mL): 0.15 (6); Mutant spots per individual (number of spots), Twin ([5]; 80 µg/mL): 0 (0); Mutant spots per individual (number of spots), Large Single ([5]; 120 µg/mL): 0 (0); Mutant spots per individual (number of spots), Small Single ([5]; 120 µg/mL): 0.08 (3); Mutant spots per individual (number of spots), Total Spots ([5]; 120 µg/mL): 0.08 (3); Mutant spots per individual (number of spots), Twin ([5]; 120 µg/mL): 0 (0); Statistical diagnosis, Small Single ([5]; 120 µg/mL, vs DI): −; Statistical diagnosis, Total Spots ([5]; 120 µg/mL, vs DI): −; IC20 ([6]; decreases cell viability by 20%): ~43 µM; IC50 ([6]; decreases cell viability by 50%): ~69 µM; Number of Revertant Colonies ([7]; +S9, 5.7 µM/plate): 27 ± 7; Number of Revertant Colonies ([7]; +S9, 11.4 µM/plate): 26 ± 8; Number of Revertant Colonies ([7]; +S9, 22.8 µM/plate): 27 ± 8; mutagenicity in the Ames test ([7]; TA98 and TA100, presence and absence of metabolic activation): did not induce mutations; Number of Revertant Colonies ([7]; −S9, 5.7 µM/plate): 22 ± 6; Number of Revertant Colonies ([7]; −S9, 11.4 µM/plate): 23 ± 5; Number of Revertant Colonies ([7]; −S9, 22.8 µM/plate): 23 ± 7; Number of Revertant Colonies ([8]; +S9, 5.7 µM/plate): 136 ± 12; Number of Revertant Colonies ([8]; +S9, 11.4 µM/plate): 131 ± 7; Number of Revertant Colonies ([8]; +S9, 22.8 µM/plate): 136 ± 8; Number of Revertant Colonies ([8]; −S9, 5.7 µM/plate): 120 ± 6; Number of Revertant Colonies ([8]; −S9, 11.4 µM/plate): 115 ± 7; Number of Revertant Colonies ([8]; −S9, 22.8 µM/plate): 117 ± 4
